Experimental data published in US8071376B2, “Production of oligodendrocytes from placenta-derived stem cells” (Anthrogenesis Corporation, priority 2005, dated 2011).

Assays:
OPCs [1] = settings: cells cultured 72 hrs with 1 μM staurosporine; background 10,000 cpm; Ebner 2000; cited from earlier work
[2] = tested on: oligodendrocyte progenitors; assay: Quantitative 3H-thymidine incorporation proliferation assay; assay type: cell-based; settings: recombinant growth factor; background 500-1000 cpm without growth factor
Protocol: Proliferation assay: The ability of oligodendrocyte progenitors to generate a mitogenic response to specific ligands is measured in a quantitative ^3H-thymidine incorporation assay. Cells are exposed to growth factors, in a dose range that brackets the maximal response to FGF and PDGF, in order to determine the half-maximal response. Responses range from a background of 500-1000 cpm (no growth factor) to 10,000 cpm (recombinant PDGF-AA), and the assay is sufficiently sensitive to accurately detect partial mitogenic responses. All cell proliferation assays are optionally performed at least three independent times. For qualitative assays, cells are exposed to mitogens with 50 μM BrdU (Sigma) present for the final 4 hrs, and DNA synthesis is monitored by dual immunofluorescence for BrdU (Osterhout et al., J. Neurosci. 17:9122-9132 (1997)) and a second lineage marker.
Proliferation assays are performed on cells that have been removed from mitogens for 24 hrs prior to exposure to recombinant growth factors to reduce background levels of DNA synthesis. […] Nucleic acid is recovered using an automatic harvester (Brandel) and the incorporated radioactivity measured by scintillation counting. […]

OPCs [3] = settings: background migration 1,000 cells/mm^2; Armstrong et al. 1990; cited from earlier work

| Molecule | 32P incorporation into 3'-ends of DNA (OPCs [1]) | mitogenic response, 3H-thymidine incorporation [2] | chemotaxis, cells migrated (OPCs [3]) |
| --- | --- | --- | --- |
| CN[C@@H]1C[C@H]2O[C@@](C)([C@@H]1OC)n1c3ccccc3c3c4c(c5c6ccccc6n2c5c31)C(=O)NC4 [staurosporine] | 100,000 cpm |  |  |
| PDGF-AA: recombinant (human) polypeptide growth factor, oligodendrocyte progenitor cell mitogen |  | 10,000 cpm | 4,000 cells/mm^2 |
